Where “and” joins values, the source holds several entries; their conditions need not be identical. Identical values can stand only once. Like-named read-outs stand apart in the source and are kept apart here.
Legend:
Type in all cases: cell-based
[1] = target: T1, human SGLT5 (Homo sapiens, UniProt A0PJK1); assay: Inhibition of 10 µM radiolabelled 1,5-AG transport in HEK293T cells overexpressing human SGLT5
T1 construct: expressed in transfected cells
T1 sequence (A0PJK1 1-596): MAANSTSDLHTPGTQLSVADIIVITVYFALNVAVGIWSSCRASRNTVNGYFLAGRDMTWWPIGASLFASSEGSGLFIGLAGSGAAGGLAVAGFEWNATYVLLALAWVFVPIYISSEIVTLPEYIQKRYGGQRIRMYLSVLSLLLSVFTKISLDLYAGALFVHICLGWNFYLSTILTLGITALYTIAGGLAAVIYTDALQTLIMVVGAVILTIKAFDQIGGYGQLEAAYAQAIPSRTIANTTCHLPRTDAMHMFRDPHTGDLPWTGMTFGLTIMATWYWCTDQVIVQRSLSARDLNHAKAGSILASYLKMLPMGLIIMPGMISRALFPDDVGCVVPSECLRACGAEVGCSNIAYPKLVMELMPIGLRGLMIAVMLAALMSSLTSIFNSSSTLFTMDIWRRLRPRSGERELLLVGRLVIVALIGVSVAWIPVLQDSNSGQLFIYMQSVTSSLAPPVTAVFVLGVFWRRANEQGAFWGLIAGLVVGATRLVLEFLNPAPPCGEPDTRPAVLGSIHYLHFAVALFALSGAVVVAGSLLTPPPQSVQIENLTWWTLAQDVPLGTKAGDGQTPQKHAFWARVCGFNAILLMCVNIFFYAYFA
Description: (§1) For a typical transporter experiment we proceeded as follows. […] To minimize cell loss during the various washing steps in the radioactive uptake experiments, the wells where the cells were seeded were previously coated with poly- D-lysine, which improved their adhesion to the plastic surface of the wells. For this, each well of the 24-well plates was treated with 200 µl of a 0.01% poly-L-lysine solution for 10 min, washed 3 times with 1 ml of sterilized water and left to dry for 2 h. Only then could the 24-well plates be seeded with the appropriate cell lines and cultured overnight at 37 °C in 5% CO2.
(§2) On day two, the radioactive uptake assay could be performed. The cell culture media was removed by aspiration and cells were incubated for 20 min at 37 °C and 5% CO2 with a basal medium (10 mM HEPES, pH 7.4, 1 mM CaCl2, 1 mM MgCl2, 2 mM KCl) containing 140 mM choline chloride to deplete intracellular […] ions. This was subsequently replaced with the uptake medium (basal medium + 140 mM NaCl, 25 μM cytochalasin B, 1 mg/ml BSA) containing either radioactive U-[^14C]-mannose (15,000 cpm/well) or 2-[^3H]-1,5-AG (30,000 cpm/well) and respectively, non-radioactive mannose or 1,5-AG, at the required concentration in the experiment. Importantly, when measuring the transport of mannose, the uptake media also contained 0.5 mM glucose. This resulted from the need to reduce the background transport of mannose in control HEK293T cells in order to optimize the transport assay for this sugar in our model cell lines. Consequently, after testing various inhibitors (Supplementary Fig. 1), 0.5 mM glucose + 25 µM cytochalasin B appeared as the best combination to decrease efficiently the endogenous transport of mannose in control cells without affecting the transport of mannose in model cell lines overexpressing SGLT4 and SGLT5. Therefore in the radioactive uptake assays for mannose, the uptake medium was: basal uptake medium + 140 mM NaCl, 25 μM cytochalasin B, 0.5 mM glucose and 1 mg/ml BSA to which we added U-[^12C + ^14C]-mannose as described above.
(§3) Once the uptake medium was added to the cells, the plates were incubated at 37 °C in 5% CO2 during the required time. […] In each experiment, the transport activities were calculated after subtracting a “blank” value, corresponding to the radioactivity in the appropriate control cells (HEK293T cells that were stably or transiently transfected with one of the parent plasmids pEF6/MycHisA, pEF6HisB, pUB82 or pUB83 with no inserted cDNA) that were analyzed in parallel.
(§4) The transport experiments to study the specificity of SGLT4 or SGLT5, were performed in the presence of 10 µM U-[^14C + ^12C]-mannose (for SGLT4) or 2-[^3H + ^1H]-1,5-AG (for SGLT5) and increasing concentrations of various sugars tested. The transport experiments to study the inhibition of empagliflozin, dapagliflozin or remogliflozin, on the transport of 1,5-AG by SGLT5 or its variants were performed in the presence of 10 µM 2-[^3H + ^1H]-1,5-AG and increasing concentrations of the various gliflozins tested.

[2] = target: T2, human SGLT4 (Homo sapiens, UniProt Q2M3M2); assay: Inhibition of 10 µM radiolabelled mannose transport in HEK293T cells overexpressing human SGLT4; details: for inhibition at 10000 µM: HEK-293T, read-out: hSGLT4 inhibition with 10 mM inhibitor
T2 construct: expressed in transfected cells
T2 sequence (Q2M3M2 1-681): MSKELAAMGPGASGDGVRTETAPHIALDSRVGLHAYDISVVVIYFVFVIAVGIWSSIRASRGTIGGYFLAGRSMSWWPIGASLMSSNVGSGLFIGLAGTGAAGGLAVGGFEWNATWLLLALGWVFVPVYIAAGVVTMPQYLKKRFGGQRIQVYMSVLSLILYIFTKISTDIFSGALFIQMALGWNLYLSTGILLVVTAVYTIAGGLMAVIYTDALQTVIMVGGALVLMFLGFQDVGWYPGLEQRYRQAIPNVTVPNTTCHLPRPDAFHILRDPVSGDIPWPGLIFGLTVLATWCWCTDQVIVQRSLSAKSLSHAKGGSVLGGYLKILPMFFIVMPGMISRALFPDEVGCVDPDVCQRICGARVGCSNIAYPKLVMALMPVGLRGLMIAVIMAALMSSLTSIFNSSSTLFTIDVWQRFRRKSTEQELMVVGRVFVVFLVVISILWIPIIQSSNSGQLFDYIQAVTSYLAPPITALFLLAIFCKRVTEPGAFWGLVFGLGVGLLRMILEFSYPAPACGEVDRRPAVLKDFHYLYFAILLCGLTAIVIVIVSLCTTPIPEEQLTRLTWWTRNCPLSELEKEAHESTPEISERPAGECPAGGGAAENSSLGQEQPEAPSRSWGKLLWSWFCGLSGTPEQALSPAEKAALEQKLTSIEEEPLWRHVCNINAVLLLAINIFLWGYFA
Description: as §1, §2, §3, §4

[3] = target: T3, SGLT5-TM (S70N–E71I–L75H) (Homo sapiens, UniProt A0PJK1, E71I/L75H/S70N); assay: Inhibition of 10 µM 1,5-AG transport by triple mutant SGLT5-TM (S70N-E71I-L75H); details: versus wild-type SGLT5, competition experiments, Supplementary Fig. 7
T3 construct: pUB83-hSGLT5-iso2 as well as the various SGLT5 mutants obtained were used to transduce HEK293T cells; expressed in transfected cells; host or cells: HEK293T, lentiviral transduction (pUB83)
T3 sequence (A0PJK1 whole entry S70N/E71I/L75H): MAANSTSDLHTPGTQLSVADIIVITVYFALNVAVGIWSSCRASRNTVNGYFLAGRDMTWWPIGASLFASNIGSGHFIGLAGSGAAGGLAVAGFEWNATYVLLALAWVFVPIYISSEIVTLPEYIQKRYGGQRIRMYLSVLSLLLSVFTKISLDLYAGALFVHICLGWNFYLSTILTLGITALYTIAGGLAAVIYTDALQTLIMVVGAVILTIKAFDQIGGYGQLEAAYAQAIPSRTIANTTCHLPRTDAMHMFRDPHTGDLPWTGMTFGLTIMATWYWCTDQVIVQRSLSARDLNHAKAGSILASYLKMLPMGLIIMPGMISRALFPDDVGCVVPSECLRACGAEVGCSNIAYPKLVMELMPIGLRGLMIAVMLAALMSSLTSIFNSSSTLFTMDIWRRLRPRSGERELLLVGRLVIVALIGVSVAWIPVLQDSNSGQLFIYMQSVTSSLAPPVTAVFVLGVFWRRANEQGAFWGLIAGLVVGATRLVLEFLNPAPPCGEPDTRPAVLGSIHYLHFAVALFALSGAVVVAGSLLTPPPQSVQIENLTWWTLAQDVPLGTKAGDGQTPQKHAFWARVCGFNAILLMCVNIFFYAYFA
Description: as §4
SGLT5 mutants were created using the quick-change site directed mutagenesis method that enables effective mutagenesis without subcloning of the amplified PCR products. Complementary primer pairs carrying the desired replacements (Supplementary Table 3) were designed using an online tool (https://www.agilent.com/store/primerDesignProgram.jsp). The PCR protocol was carried out following the manufacturer instructions regarding the KOD HOT Start polymerase kit (TOYOBO™, Novagen). The amplified DNA was cleaned-up from the reactions constituents using the GeneJET PCR purification Kit (Thermo Scientific™) and the size of the DNA fragment were verified by DNA agarose-gel electrophoresis. After eliminating the parental DNA by digesting the purified DNA with the DpnI restriction enzyme, the DNA fragments containing the appropriate changes were transformed in E. coli NEB Turbo competent cells (C2984H). Once colonies were obtained, plasmid DNA was finally amplified, purified and sequenced to verify that the required changes had been introduced and eliminate any PCR errors. Next, pUB83-hSGLT5-iso2 as well as the various SGLT5 mutants obtained were used to transduce HEK293T cells using the exact same protocol as described above to create model cell lines overexpressing the different SGLT5 transporters.
Supplementary Fig. 7: Substrate specificity of SGLT5 - impact of replacing specific and conserved substrate binding residues in human SGLT5 by the equivalent ones in […]
When shown, the IC50 values are derived from inhibition curves showing the transport activity of 1,5-AG by the indicated SGLT5 mutants. Values show the concentration needed of the various sugars to inhibit by 50% the transport activity of 10 µM 2-[1H+3H]-1,5-AG. When the inhibition was too weak to derive IC50 values, the inhibition of the transport of 1,5-AG with the indicated concentration of the inhibitor-sugar is shown. Of note, despite having a lower […]
µM). These apparently contradictory changes are not necessarily surprising: in the case of enzymes, there are multiple examples of mutations that, at the same time, increase the apparent affinity (decrease the Km) of an enzyme for its substrate while decreasing the Vmax.
Measurement of transport activities and the description of the structures of the various inhibitory sugars used are as in Fig. 3C. Data corresponds to n = 3 in at least 2 independent […]
(1 picture or pasted object on this page, not shown here)

[4] = substrate: OC[C@H]1OC[C@H](O)[C@@H](O)[C@@H]1O; assay: Radioactive uptake assay (saturation kinetics) in HEK293T cells expressing mouse SGLT5; details: other: 30 min, Supplementary Fig. 4; pH 7.4; 37.0 °C
Description: as §1
On day two, the radioactive uptake assay could be performed. […]
Once the uptake medium was added to the cells, the plates were incubated at 37 °C in 5% CO2 during the required time. […] In each experiment, the transport activities were calculated after subtracting a “blank” value, corresponding to the radioactivity in the appropriate control cells (HEK293T cells that were stably or transiently transfected with one of the parent plasmids pEF6/MycHisA, pEF6HisB, pUB82 or pUB83 with no inserted cDNA) that were analyzed in parallel. […]
Supplementary Fig. 4: Transport activities for 1,5-anhydroglucitol and mannose of recombinant mouse SGLT4 and SGLT5 isoforms measured in HEK293T cells. […]

[5] = substrate 10 μM 1,5-AG, unlabelled sugars, Fig. 3C, read-out: hSGLT5 IC50
[6] = 10 mM inhibitor, substrate 10 μM mannose
[7] = 10 µM 2-[1H+3H]-1,5-AG, Fig. 5C, read-out: IC50 for SGLT5-mediated 1,5-AG transport (gliflozins)

Work on O=C1CO[C@H](CO)[C@@H](O)[C@@H]1O [1,5-AF, 1,5-anhydrofructose] yielded an IC50 [1, 5] of 179 µM and an inhibition at 10000 µM [2, 6] of 44%.

With OC[C@H]1OC[C@@H](O)[C@@H](O)[C@@H]1O [1,5-AM, 1,5-anhydromannitol] the “loss of affinity of SGLT5-TM” value [3] was 250 fold, the “preference for 1,5-anhydromannitol over 1,5-AG, difference in Ki” value ([1]; SGLT5) was 12 fold and the “preference of 1,5-anhydromannitol over mannose, difference in Ki” value ([1]; SGLT5) was 25 fold. For the same molecule, the IC50 [1, 5] was 13 µM, the “less affinity of SGLT4 compared to SGLT5” value ([2]; from Fig. 3C) was 200 fold and the IC50 ([2]; substrate 10 μM mannose, Fig. 3C, read-out: hSGLT4 IC50) was 2300 µM.

With O=C(CO)[C@@H](O)[C@H](O)[C@H](O)CO [Fructose, fructose] the “loss of affinity of SGLT5-TM” value [3] was “tenfold”, the IC50 [1] was 726 µM and the inhibition at 10000 µM [2, 6] was 33%.

OC[C@H]1OC(O)[C@H](O)[C@@H](O)[C@@H]1O (some centres unmarked) [Glucose, glucose] was tested, and the “gain of affinity of SGLT5-TM” value [3] was 30 fold, the IC50 [1, 5] was 3650 µM and the inhibition at 10000 µM [2, 6] was 20%.

CCOc1ccc(Cc2cc([C@@H]3O[C@H](CO)[C@@H](O)[C@H](O)[C@H]3O)ccc2Cl)cc1 [dapagliflozin] showed an IC50 [1, 7] of 0.4 µM.

Cc1c(Cc2ccc(OC(C)C)cc2)c(O[C@@H]2O[C@H](CO)[C@@H](O)[C@H](O)[C@H]2O)nn1C(C)C [remogliflozin] was tested, and the IC50 [1, 7] was 0.26 µM and 0.27 µM.

In the case of galactose, the “gain of affinity of SGLT5-TM” value [3] is reported as 30 fold, the “hSGLT5 inhibition with 10 mM inhibitor” value ([1]; 10 mM inhibitor, substrate 10 μM 1,5-AG) is reported as 10% and the “hSGLT4 inhibition with 10 mM inhibitor” value [2, 6] is reported as 39%.

B1: mouse SGLT5 (Mus musculus) (protein)
chain: MAGNSTGDAHVPGSQLSVTDIIVISVYFALNVAVGIWSACRANKNTVSGYFLAGRDMAWWPIGASLFASSEGSGLFVGLAGSGAAGGLAVAGFEWNATYVLLALAWVFVPIYISSEIVTLPEYIQKRFGGQRIRTYLSVLSLMLSVFTKISIDLYAGALFVHICLGWNFYLSTILTLAITALYTIAGGLATVIYTDALQTIIMVVGAVILAVKAFNQIGGYEQLEAAYAQAIPSRTIPNTTCHLPRADAMHMFRDPSTGDLPWTGMTFGLTIMATWYWCTDQVIVQRSLSARNLNHAKAGSILASYLKMLPMGLMIMPGMISRVLFPDDVGCVVPSECLRACGAEIGCSNIAYPKLVMELMPIGLRGLMIAVMMAALLSSLTSIFNSSSTLFTMDIWRQLRPSAGERELLLVGRLVIVVLIGVSVAWIPVLQGSNSGQLFIYMQSVTSSLAPPVTAIFILGIFWRRANEQGAFWGLMAGLVVGALRLVLEFLYPEPPCGQIDTRPAPLRSLHYLHFAIALFLLTCAVMAAGSLLSPPPQQRQIENLTWWTLAPNWSLGTKTGDGQTPQKRAFWARVCNVNAIFLMCVNIFFYAYFA
notes: expressed in transfected cells; host or cells: HEK293T
For B1, the Km [4] was 500 µM.

— publication PMC10439028, “SGLT5 is the renal transporter for 1,5-anhydroglucitol, a major player in two rare forms of neutropenia” (Cellular and Molecular Life Sciences: CMLS, 2023)
